Source: publication PMC5557545 (PLoS ONE, 2017)

What was measured:
[1] = tested on: endonuclease from detergent disrupted viral particles; design: method as in PMID 7695269; conditions: cited from earlier work
[2] = tested on: influenza virus transcription; conditions: cited from earlier work
[3] = target: influenza A polymerase acidic protein (PA), full length, N-terminal 3x FLAG tag (influenza A virus H1N1 strain A/PR/8) (UniProt P03433); test: AUC

In the case of `O=C(O)C(=O)CC(=O)c1ccc(-c2ccccc2)cc1` [Compound A, 4-([1,1'-biphenyl]-4-yl)-2,4-dioxobutanoic acid], the IC50 [1] is listed as 3.7 µM.
In the case of `O=C(O)C(=O)CC(=O)C1(Cc2ccc(Cl)cc2)CCN(Cc2ccc(Cl)cc2)CC1` [Compound B, 4-(1,4-bis(4-chlorobenzyl)piperidin-4-yl)-2,4-dioxobutanoic acid], the IC50 [2] is given as 1.1 µM.
“influenza A polymerase acidic protein (PA), full length, N-terminal 3x FLAG tag (from UniProt P03433 1-716) (natural protein)” showed a percent dimer [3] of 10%.
